Measured values: patent US20070197453A1, “Compositions and methods for treatment of disorders of protein aggregation” (priority 2006, published 2007)
Entries after “also recorded” stand apart in the source; their conditions may differ.

Key:
TgCRND8 mice [1] = test: Morris Water Maze spatial reference memory test; type: in vivo, mouse
Description: Behavioural tests: Morris Water Maze testing was performed as previously described. After non-spatial pre-training, mice underwent place discrimination training for 5 days with 4-trials per day, followed by a cued visible platform to rule out general motivational, learning deficits and motor problems, and a probe trial to evaluate memory. […] Open field test for motor activity was preformed as described previously. Duration of walking, pausing and grooming were analyzed as indices of spontaneous locomotor activity. Sensorimotor function was examined with an Economex™ accelerating rotarod (Columbus Instruments, Columbus, Ohio), as described elsewhere. The rod was set to accelerate at a rate of 0.2 r.p.m./s, from an initial, constant speed of 5 r.p.m. Latency to fall was recorded in four daily trials, conducted at 30 min intervals. All mice were trained for seven days before testing. The test day performance score for each animal was obtained by summing its latency to fall over the four trials
Behavioural tests: Behavioural analyses were performed using the Morris Water Maze test (13, 14). After pre-spatial training, mice underwent place discrimination training for 5 days with 4 trials per day, followed by a cued visible platform to rule out general motivational, learning deficits and motor problems. […] Open field test for motor activity was performed as described previously. Duration of walking, pausing, rearing and grooming were analyzed as indices of spontaneous locomotor activity.

Aβ40 = molecular target: T1, Aβ40 (Homo sapiens, UniProt P05067); test: Cerebral Aβ content: brain Aβ40 (ELISA kit); type: in vivo, mouse; conditions: TgCRND8 mice with pre-existing disease; 28 day treatment from 5 months of age
T1 construct: from tissue; host or cells: hemi-brain homogenate of TgCRND8 transgenic mice
Description: (§1) Plasma and Cerebral Aβ Content. Hemi-brain samples were homogenized in a buffered sucrose solution, followed by either 0.4% diethylamine/100 mM NaCl for soluble Aβ levels or cold formic acid for the isolation of total Aβ. After neutralization, the samples were diluted and analyzed for Aβ40 and Aβ42 using commercially available kits (BIOSOURCE International). Each hemisphere was analyzed in triplicate and the mean values±SEM reported. Western blot analyses were performed on all fractions using urea gels for Aβ species analyses. Aβ was detected using 6E10 (BIOSOURCE International) and Enhanced Chemiluminenscence (Amersham).
(§2) Cerebral Aβ Content. Hemi-brain samples were homogenized in a buffered sucrose solution, followed by either 0.4% diethylamine/100 mM NaCl for soluble Aβ levels or cold formic acid for the isolation of total Aβ [22]. After neutralization the samples were diluted and analyzed for Aβ40 and Aβ42 using commercially available kits (BIOSOURCE International). Each hemisphere was analyzed in triplicate with the mean±SEM reported. Plasma was diluted and run directly on the ELISA.

TgCRND8 mice [2] = test: Cerebral amyloid plaque burden (anti-Aβ immunostaining, image analysis); type: in vivo, mouse
Description: Cerebral amyloid burden. Brains were removed and one hemisphere was fixed in 4% paraformaldehyde and embedded in paraffin wax in the mid sagittal plane. To generate sets of systematic uniform random sections, 5 μm serial sections were collected across the entire hemisphere. Sets of sections at 50 μm intervals were used for analyses (10-14 sections/set). Plaques were identified after antigen retrieval with formic acid, and incubation with primary anti-Aβ antibody (Dako M-0872), followed by secondary antibody (Dako StreptABCcomplex/horseradish kit). End products were visualized with DAB and were counter-stained with luxol fast blue. Amyloid plaque burden was assessed with Leco IA-3001 image analysis software interfaced with Leica microscope and Hitachi KP-M1U CCD video camera. Openlab imaging software (Improvision, Lexington, Mass.) was then used to convert micrographs to binary images for plaque number and plaque area determinations. Vascular amyloid burden was defined as amyloid originating from or surrounding blood vessels and was analysed similarly.

TgCRND8 mice [3] = test: Gliosis quantitation (GFAP astrocytes, CD68 microglia); type: in vivo, mouse
Description: Gliosis Quantitation. Five randomly selected, evenly spaced, sagittal sections were collected from paraformaldehyde-fixed and frozen hemispheres of treated and control mice. Sections were immunolabelled for astrocytes with anti-rat GFAP IgG2a (Dako; diluted 1:50) and for microglia with anti-rat CD68 IgG2b (Dako; 1:50). Digital images were captured using a Coolsnap digital camera (Photometrics, Tuscon, Ariz.) mounted to a Zeiss, Axioscope 2 Plus microscope. Images were analysed using Openlab 3.08 imaging software (Improvision, Lexington Mass.).

TgCRND8 mice [4] = test: Survival census (Kaplan-Meier); type: in vivo, mouse; conditions: compared to untreated TgCRND8 mice
Description: Survival Census: The probability of survival was assessed by the Kaplan-Meier technique, computing the probability of survival at every occurrence of death, thus making it suitable for small sample sizes. For the analyses of survival, 35 mice were used for each treatment group. The Tarone-Ware test was used to assess effects of treatments.
Survival Census: The probability of survival was assessed by the Kaplan-Meier technique computing the probability of survival at every occurrence of death, thus making it suitable for small sample sizes. For the analyses of survival, 30 mice were used for each treatment group. The Tarone-Ware test was used to assess effects of treatments.

neurons = conditions: cited from earlier work
Aβ42 [5] = molecular target: T2, Aβ42 (Homo sapiens, UniProt P05067); test: Plasma Aβ42 levels; type: in vivo, mouse; parameters: from tissue; host or cells: plasma of TgCRND8 transgenic mice; conditions: TgCRND8 mice following 28 days of therapy at five months of age
Description: as §1, §2
Target sequence in this assay (P05067 672-713): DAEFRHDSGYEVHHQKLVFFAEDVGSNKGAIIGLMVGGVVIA

Aβ42 [6] = molecular target: T2, Aβ42; test: Cerebral Aβ content: brain Aβ42 (ELISA kit); type: in vivo, mouse; parameters: from tissue; host or cells: hemi-brain homogenate of TgCRND8 transgenic mice; conditions: TgCRND8 mice with pre-existing disease; 28 day treatment from 5 months of age
Description: as §1, §2
Target sequence in this assay (P05067 672-713 limits assumed): as the sequence (P05067 672-713) above

Pilot in vivo studies = conditions: data not shown
Aβ = conditions: reference [11]; cited from earlier work
[7] = 6-18 grams/day/adult or 86-257 mg/Kg/day; reference [21]; cited from earlier work
[8] = six month old TgCRND8 mice, 28 days of oral treatment beginning at five months of age
[9] = TgCRND8 mice, 4-month Prophylactic (oral from 6 weeks to 4 months of age)
[10] = TgCRND8 mice, 6-month Prophylactic (oral from 6 weeks to 6 months of age)
[11] = TgCRND8 mice, oral treatment for 28 days (1 month) from 5 months of age, analysed at 6 months

T1 sequence (P05067 672-711): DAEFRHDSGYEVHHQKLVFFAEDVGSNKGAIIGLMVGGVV

Molecule: 1,2,3,4,5/6-(epi-)cyclohexanehexol [epi-cyclohexanehexol]
- Non-Tg littermate behaviour under treatment (TgCRND8 mice [1]; non-Tg littermates, Morris Water Maze): not affected
- cognition compared to non-Tg mice (TgCRND8 mice [1]; prophylactic treatment, four months of age): significantly different from treated and untreated non-Tg mice
- cognition compared to non-Tg littermates (TgCRND8 mice [1]; prophylactic treatment, six months of age): approached that of non-Tg littermates
- spatial reference memory performance compared to non-Tg littermates (TgCRND8 mice [1]; [8]): significantly poorer than the performance of their non-Tg littermates; also recorded: remained impaired with respect to non-Tg littermates
- spatial reference memory performance compared to untreated TgCRND8 littermates (TgCRND8 mice [1]; [8]): not significantly different from that of untreated TgCRND8 littermates
- effect on brain Aβ40 levels (Aβ40): no significant impact
- amyloid (plaque) burden, immunostaining (TgCRND8 mice [2]; TgCRND8 mice at six months of age, hippocampus and cerebral cortex): modest effect on amyloid burden
- plaque burden (percent area of the brain covered with plaques, plaque number) (TgCRND8 mice [2]; TgCRND8 mice with pre-existing disease, one month treatment from 5 months of age): no significant impact
- Mean Plaque Size (TgCRND8 mice [2]; [9]): 95 ± 43 μm^2
- Total Plaque Area (TgCRND8 mice [2]; [9]): 65042 ± 5199 μm^2
- Mean Plaque Size (TgCRND8 mice [2]; [10]): 370 ± 9 μm^2
- Total Plaque Area (TgCRND8 mice [2]; [10]): 380456 ± 13498 μm^2
- Mean Plaque Size (TgCRND8 mice [2]; [11]): 346 ± 6 μm^2
- Total Plaque Area (TgCRND8 mice [2]; [11]): 459706 ± 49966 μm^2
- Total Plaque Count (TgCRND8 mice [2]; TgCRND8 mice, oral treatment for 28 days from 5 months of age, analysed at 6 months): 1342 ± 114
- percent brain area covered with microgliosis (TgCRND8 mice [3]; TgCRND8 mice): decreased the percent brain area covered with microgliosis
- astrogliosis / gliosis, anti-GFAP immunostaining (TgCRND8 mice [3]; TgCRND8 mice at six months of age): decrease in astrogliosis
- percent brain area covered in astrogliosis (TgCRND8 mice [3]; TgCRND8 mice, 4- and 6-months of age): decreased the percent brain area covered in astrogliosis at both 4- and 6-months of age
- Kaplan Meier cumulative survival (TgCRND8 mice [4]): did not significantly improve survival
- activity against synthetic Aβ42 neurotoxicity (neurons): protects neurons from synthetic Aβ42 cytotoxicity
- Plasma Aβ42 levels (Aβ42 [5]): 1079 ± 79 pg/mL
- effect on brain Aβ42 levels (Aβ42 [6]): no significant impact

Molecule: OC1C(O)C(O)C(O)C(O)C1O (centres unmarked) [chiro-inositol, chiro-cyclohexanehexol, reference compound]
- activity against synthetic Aβ42 neurotoxicity (neurons): inactive

Molecule: O[C@H]1[C@H](O)[C@@H](O)[C@H](O)[C@@H](O)[C@H]1O [myo-cyclohexanehexol, 1,2,3,5/4,6-(myo-)cyclohexanehexol]
- benefit in pilot in vivo studies (Pilot in vivo studies): no significant benefit
- effectiveness in prior in vitro studies (Aβ): only weakly effective
- toxicity [7]: no toxicity in humans or animals
